Reference: patent US6737383B1, “Herbicidal oxadiazolidines” (priority 1999, dated 2004)

Key:
purple nutsedge = assay: Test B pre/postemergence purple nutsedge; type: in vivo, Cyperus rotundus
In short: (§1)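 Herbicidal effect was estimated by eye on a ten-point control scale after plants spent twelve to sixteen days in a greenhouse following soil or foliar treatment. Foliar sprays targeted plants at one to four leaves; all doses were formulated in a non-phytotoxic solvent with surfactant.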

velvetleaf = assay: Test B pre/postemergence velvetleaf; type: in vivo, Abutilon theophrasti
In short: as §1

wild oat = assay: Test B pre/postemergence wild oat; type: in vivo, Avena fatua
In short: as §1

morningglory = assay: Test B pre/postemergence morningglory; type: in vivo, Ipomoea hederacea
In short: as §1

blackgrass = assay: Test B pre/postemergence blackgrass; type: in vivo, Alopecurus myosuroides
In short: as §1

bedstraw = assay: Test B pre/postemergence bedstraw; type: in vivo, Galium aparine
In short: as §1

pigweed = assay: Test B pre/postemergence pigweed; type: in vivo, Amaranthus retroflexus
In short: as §1

rice = assay: Test B flood test rice; type: in vivo, Oryza sativa
In short: (§2)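 Plants were grown to the 2-leaf stage before treatment with test chemical, then held in a greenhouse for twelve to sixteen days. Injury was visually rated against untreated controls on a 0–10 scale, where 0 is no effect and 10 is complete control.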

crabgrass = assay: Test B pre/postemergence crabgrass; type: in vivo, Digitaria sanguinalis
In short: as §1

sugar beet = assay: Test B pre/postemergence sugar beet; type: in vivo, Beta vulgaris
In short: as §1

surinam grass = assay: Test B pre/postemergence surinam grass; type: in vivo, Brachiaria decumbens
In short: as §1

duck salad = assay: Test B flood test duck salad; type: in vivo, Heteranthera limosa
In short: as §2

cocklebur = assay: Test B pre/postemergence cocklebur; type: in vivo, Xanthium strumarium
In short: as §1

bamyardgrass = assay: Test B flood test barnyardgrass; type: in vivo, Echinochloa crus-galli
In short: as §2

wheat = assay: Test B pre/postemergence wheat; type: in vivo, Triticum aestivum
In short: as §1

giant foxtail = assay: Test B pre/postemergence giant foxtail; type: in vivo, Setaria faberii
In short: as §1

[1] = Postemergence, Rate 125 g/ha, scale of 0 to 10 where 0 is no effect and 10 is complete control
[2] = Preemergence, Rate 62 g/ha, scale 0 to 10 (0 no effect, 10 complete control)
[3] = Preemergence, Rate 125 g/ha, 0 is no effect, 10 is complete control
[4] = Preemergence, Rate 250 g/ha, scale 0 to 10, 0 is no effect, 10 is complete control
[5] = Preemergence, Rate 500 g/ha, scale 0 to 10 (0 no effect, 10 complete control)
[6] = Rate 62 g/ha, Postemergence, scale of 0 to 10 where 0 is no effect and 10 is complete control
[7] = Rate 250 g/ha, Postemergence, scale 0 to 10, 0 is no effect, 10 is complete control
[8] = Rate 500 g/ha, Postemergence, scale 0 to 10
[9] = Postemergence (flood test species), Rate 125 g/ha, scale of 0 to 10 where 0 is no effect and 10 is complete control
[10] = Rate 62 g/ha, Postemergence section, flood test species, scale of 0 to 10 where 0 is no effect and 10 is complete control
[11] = Rate 250 g/ha, Postemergence (flood test), scale 0 to 10, 0 is no effect, 10 is complete control
[12] = Rate 500 g/ha, listed under Postemergence (flood test species), scale 0 to 10

CC(C)N(C(=O)n1oc(=O)n(Cc2ccccc2Cl)c1=O)C1=CCCCC1 [Compound 145]
4: Blackgrass plant response rating (blackgrass; [4]) | Bedstraw plant response rating (bedstraw; [5]) | Redroot pigweed plant response rating (pigweed; [5]) | Crabgrass plant response rating (0 to 10 scale) (crabgrass; [3]) | Crabgrass plant response rating (crabgrass; [4]) | Giant foxtail plant response rating (giant foxtail; [8])
1: Morningglory plant response rating (morningglory; [5]) | Blackgrass plant response rating (blackgrass; [1]) | Blackgrass plant response rating (0 to 10 scale) (blackgrass; [3])
0: Nutsedge plant response rating (purple nutsedge; [1]) | Nutsedge plant response rating (purple nutsedge; [2]) | Nutsedge plant response rating (0 to 10 scale) (purple nutsedge; [3]) | Nutsedge plant response rating (purple nutsedge; [4]) | Nutsedge plant response rating (purple nutsedge; [5]) | Nutsedge plant response rating (purple nutsedge; [6]) | Plant response rating, Nutsedge (purple nutsedge; [7]) | Nutsedge plant response rating (purple nutsedge; [8]) | Velvetleaf plant response rating (velvetleaf; [1]) | Velvetleaf plant response rating (velvetleaf; [2]) | Velvetleaf plant response rating (0 to 10 scale) (velvetleaf; [3]) | Velvetleaf plant response rating (velvetleaf; [4]) | Velvetleaf plant response rating (velvetleaf; [6]) | Plant response rating, Velvetleaf (velvetleaf; [7]) | Wild oats plant response rating (wild oat; [1]) | Wild oats plant response rating (wild oat; [2]) | Wild oats plant response rating (0 to 10 scale) (wild oat; [3]) | Wild oats plant response rating (wild oat; [4]) | Wild oats plant response rating (wild oat; [6]) | Plant response rating, Wild oats (wild oat; [7]) | Morningglory plant response rating (morningglory; [2]) | Morningglory plant response rating (0 to 10 scale) (morningglory; [3]) | Morningglory plant response rating (morningglory; [4]) | Blackgrass plant response rating (blackgrass; [2]) | Blackgrass plant response rating (blackgrass; [6]) | Bedstraw plant response rating (bedstraw; [2]) | Bedstraw plant response rating (0 to 10 scale) (bedstraw; [3]) | Bedstraw plant response rating (bedstraw; [4]) | Bedstraw plant response rating (bedstraw; [6]) | Redroot pigweed plant response rating (pigweed; [1]) | Redroot pigweed plant response rating (pigweed; [2]) | Redroot pigweed plant response rating (0 to 10 scale) (pigweed; [3]) | Redroot pigweed plant response rating (pigweed; [6]) | Plant response rating, Redroot pigweed (pigweed; [7]) | Rice plant response rating (rice; [9]) | Rice plant response rating (rice; [10]) | Plant response rating, Rice (rice; [11]) | Rice plant response rating (rice; [12]) | Crabgrass plant response rating (crabgrass; [2]) | Sugarbeets plant response rating (sugar beet; [1]) | Sugarbeets plant response rating (sugar beet; [2]) | Sugarbeets plant response rating (0 to 10 scale) (sugar beet; [3]) | Sugarbeets plant response rating (sugar beet; [4]) | Sugarbeets plant response rating (sugar beet; [6]) | Plant response rating, Sugarbeets (sugar beet; [7]) | Sugarbeets plant response rating (sugar beet; [8]) | B. signalgrass plant response rating (surinam grass; [1]) | B. signalgrass plant response rating (surinam grass; [2]) | B. signalgrass plant response rating (0 to 10 scale) (surinam grass; [3]) | B. signalgrass plant response rating (surinam grass; [6]) | Plant response rating, B. signalgrass (surinam grass; [7]) | Ducksalad plant response rating (duck salad; [9]) | Ducksalad plant response rating (duck salad; [10]) | Plant response rating, Ducksalad (duck salad; [11]) | Cocklebur plant response rating (cocklebur; [1]) | Cocklebur plant response rating (cocklebur; [2]) | Cocklebur plant response rating (0 to 10 scale) (cocklebur; [3]) | Cocklebur plant response rating (cocklebur; [4]) | Cocklebur plant response rating (cocklebur; [5]) | Cocklebur plant response rating (cocklebur; [6]) | Plant response rating, Cocklebur (cocklebur; [7]) | Cocklebur plant response rating (cocklebur; [8]) | Barnyardgrass plant response rating (bamyardgrass; [10]) | Wheat plant response rating (wheat; [1]) | Wheat plant response rating (wheat; [2]) | Wheat plant response rating (0 to 10 scale) (wheat; [3]) | Wheat plant response rating (wheat; [4]) | Wheat plant response rating (wheat; [5]) | Wheat plant response rating (wheat; [6]) | Plant response rating, Wheat (wheat; [7]) | Wheat plant response rating (wheat; [8]) | Giant foxtail plant response rating (giant foxtail; [1]) | Giant foxtail plant response rating (giant foxtail; [2]) | Giant foxtail plant response rating (giant foxtail; [6])
8: Morningglory plant response rating (morningglory; [1]) | Crabgrass plant response rating (crabgrass; [5]) | Plant response rating, Crabgrass (crabgrass; [7]) | Crabgrass plant response rating (crabgrass; [8]) | Giant foxtail plant response rating (giant foxtail; [5])
10: Plant response rating, Morningglory (morningglory; [7]) | Morningglory plant response rating (morningglory; [8])
9: Barnyardgrass plant response rating (bamyardgrass; Rate 500 g/ha, listed under Postemergence (flood test species), scale 0 to 10, 0 no effect, 10 complete control)
3: Wild oats plant response rating (wild oat; [5]) | Plant response rating, Bedstraw (bedstraw; [7]) | Crabgrass plant response rating (crabgrass; [1]) | Sugarbeets plant response rating (sugar beet; [5]) | B. signalgrass plant response rating (surinam grass; [4]) | Giant foxtail plant response rating (0 to 10 scale) (giant foxtail; [3])
7: Blackgrass plant response rating (blackgrass; [5]) | Plant response rating, Barnyardgrass (bamyardgrass; [11])
6: Morningglory plant response rating (morningglory; [6]) | Blackgrass plant response rating (blackgrass; [8]) | Barnyardgrass plant response rating (bamyardgrass; [9])
2: Velvetleaf plant response rating (velvetleaf; [8]) | Wild oats plant response rating (wild oat; [8]) | Bedstraw plant response rating (bedstraw; [1]) | Redroot pigweed plant response rating (pigweed; [4]) | Redroot pigweed plant response rating (pigweed; [8]) | Crabgrass plant response rating (crabgrass; [6]) | B. signalgrass plant response rating (surinam grass; Rate 500 g/ha, Postemergence, scale of 0 to 10 where 0 is no effect and 10 is complete control) | Ducksalad plant response rating (duck salad; [12]) | Plant response rating, Giant foxtail (giant foxtail; [7])
5: Velvetleaf plant response rating (velvetleaf; [5]) | Plant response rating, Blackgrass (blackgrass; [7]) | Bedstraw plant response rating (bedstraw; Rate 500 g/ha, Postemergence, scale 0 to 10, 0 no effect, 10 complete control) | B. signalgrass plant response rating (surinam grass; [5]) | Giant foxtail plant response rating (giant foxtail; [4])
